Data on 24 compounds can be found in patent US5061729A, “Pharmaceutical composition and process for preparing the same” (priority 1988, dated 1991).

Read-outs that look alike come from different tables or passages of the source.

For data set [1], the system named is pathogenic micro-organisms occurring in the discharges of patients suffering from chronic otitis. The experiment in a line: treatment of the ear discharges by antibacterial agents (sensitivity, Table 2). The format is cell-based. Conditions: for A = therapeutically active (sensitive) / M = moderately active / R = inactive (resistant): number of cases of 510 examinations; for Act. = activity %: share of active cases, 510 examinations. On the procedure: In the Department for Otorhinolaryngology of the Medical University of Debrecen, adult and child patients were examined to identify the types of pathogenic micro-organisms occurring in the discharges of patients suffering from chronic otitis (otitis media chronica); the discharges of 510 patients were analyzed for the bacterial infection.
Symbols used in Table 2:
0 = number of the cases not examined
A = therapeutically active (sensitive)

The conditions of data set [2]: cited from earlier work.
The conditions of data set [3]: mice; oral administration; cited from earlier work.
Data set [4] is described as follows: single-component treatment: aqueous solutions of sulfhydryl compounds. The format is in vivo, patients. The following applies: acetylcysteine solution.
The nature of data set [5]: mucolytic (viscosity-reducing) effect of sulfhydryl compounds. The following applies: comparison of compounds containing a sulfhydryl group.
Data set [6] deals with several gram-positive and gram-negative bacteria such as Pseudomonas aeruginosa. Conditions: in vitro conditions; M. F. Parry et al.; cited from earlier work.
For data set [7] the following is noted: rats; oral administration; cited from earlier work.
For data set [8] the following is noted: dogs; oral administration; cited from earlier work.
Data set [9] is described as follows: single-component treatment: 1% tobramycin solution in chronic mesotympanic otitis. The format is in vivo, patients. Conditions: 1% solution. An excerpt: (§1) Several compositions according to the invention were also studied with omitting one active ingredient of the composition in order to support the progressive character of the multi-active-component type composition according to the invention. These experiments led to the following results.

Data set [10] is described as follows: single-component treatment: 1% tobramycin solution in external otitis. The format is in vivo, patients. Conditions: 1% solution.
Excerpt: as §1

The mark [11] stands for this setting: with sulfhydryl-containing compounds, particularly acetylcysteine.

Consider `CC1(C)S[C@@H]2[C@H](NC(=O)[C@H](N)c3ccccc3)C(=O)N2[C@H]1C(=O)O` [Ampicillin], for which, in data set [1], the “A = therapeutically active (sensitive)” value amounted to 72, the “M = moderately active” value was found to be 11, the “R = inactive (resistant)” value was 120 and the “Act. = activity %” value amounted to 40.8%.
For `CC1(C)S[C@@H]2[C@H](NC(=O)C(C(=O)O)c3ccccc3)C(=O)N2[C@H]1C(=O)O` (stereo partly shown) [Carbenicillin], in data set [1], the “A = therapeutically active (sensitive)” value was found to be 137, the “M = moderately active” value stood at 22, the “R = inactive (resistant)” value is listed as 91 and the “Act. = activity %” value was 63.6%.
Taken in the same sequence, the figures for `O=C(Cc1cccs1)N[C@@H]1C(=O)N2C(C(=O)[O-])=C(C[n+]3ccccc3)CS[C@H]12` [Cephaloridin] were 170, 27, 182 and 51.9%.
`O=C(N[C@H](CO)[C@H](O)c1ccc([N+](=O)[O-])cc1)C(Cl)Cl` [Chloramphenicol]: in data set [1], the “A = therapeutically active (sensitive)” value turned out to be 106, the “M = moderately active” value came to 11, the “R = inactive (resistant)” value is 197 and the “Act. = activity %” value was determined as 37.2%.
As for `CC[C@H]1OC(=O)[C@H](C)[C@@H](O[C@H]2C[C@@](C)(OC)[C@@H](O)[C@H](C)O2)[C@H](C)[C@@H](O[C@@H]2O[C@H](C)C[C@H](N(C)C)[C@H]2O)[C@](C)(O)C[C@@H](C)C(=O)[C@H](C)[C@@H](O)[C@]1(C)O` [Erythromycin], in data set [1], the “A = therapeutically active (sensitive)” value was determined as 113, the “M = moderately active” value is reported as 6, the “R = inactive (resistant)” value was 208 and the “Act. = activity %” value is listed as 36.4%. Also, in data set [2] (in vivo), the “influence of sulfhydryl-containing compounds on absorption from the stomach” value (from here on “influence”) was “not disadvantageously influenced by the sulfhydryl-containing compounds”.
For `COc1cccc(OC)c1C(=O)N[C@@H]1C(=O)N2[C@@H]1SC(C)(C)[C@@H]2C(=O)O` [Meticillin], in data set [1], the “A = therapeutically active (sensitive)” value is listed as 146, the “M = moderately active” value is reported as 27, the “R = inactive (resistant)” value was found to be 95 and the “Act. = activity %” value came to 64.6%.
With `CC(=O)N[C@@H](CS)C(=O)O` [N-acetyl-L-cysteine], the LD50 in data set [3] was 3000 mg/kg of body-weight; in [7], 6000 mg/kg of body-weight; in data set [8], 1000 mg/kg of body-weight. Moreover, the “character of the discharge under treatment” value in data set [4] was “rather took the form of a precipitate”. In addition, the mucolytic effect result in data set [5] was “most useful mucolytic agent”. Also, the “synergistic effect with several antibiotics” value in data set [6] was “shows a synergistic effect with several antibiotics”.
Consider `CO[C@H]1C[C@H](O[C@H]2[C@H](C)[C@@H](O[C@@H]3O[C@H](C)C[C@H](N(C)C)[C@H]3O)[C@@H](C)C[C@@]3(CO3)C(=O)[C@H](C)[C@@H](O)[C@@H](C)[C@@H](C)OC(=O)[C@@H]2C)O[C@@H](C)[C@@H]1O` [Oleandomycin], for which, in data set [1], the “A = therapeutically active (sensitive)” value came to 114, the “M = moderately active” value was found to be 4, the “R = inactive (resistant)” value was 179 and the “Act. = activity %” value amounted to 39.7%.
On to `Cc1onc(-c2ccccc2)c1C(=O)N[C@@H]1C(=O)N2[C@@H]1SC(C)(C)[C@@H]2C(=O)O` [Oxacillin], for which, in data set [1], the “A = therapeutically active (sensitive)” value is reported as 191, the “M = moderately active” value is listed as 13, the “R = inactive (resistant)” value amounted to 77 and the “Act. = activity %” value worked out at 72.6%.
Taken in the same sequence, the figures for `CC1(C)S[C@@H]2[C@H](NC(=O)Cc3ccccc3)C(=O)N2[C@H]1C(=O)O` [Penicillin] were 67, 22, 218 and 29.4%.
The corresponding values for `[H]/N=C(/N)N[C@H]1[C@H](O)[C@@H](O)[C@H](O[C@@H]2O[C@@H](C)[C@](O)(C=O)[C@H]2O[C@@H]2O[C@@H](CO)[C@H](O)[C@@H](O)[C@@H]2NC)[C@@H](N/C(N)=N\[H])[C@@H]1O` [Streptomycin] are 39, 42, 87 and 48.2%.
Taken in the same sequence, the figures for `CN(C)[C@@H]1C(=O)C(C(N)=O)=C(O)[C@@]2(O)C(=O)C3=C(O)c4c(O)cccc4[C@@](C)(O)[C@H]3C[C@@H]12` [Tetracyclin] were 79, 16, 279 and 25.4%.
For `NC[C@H]1O[C@H](O[C@H]2[C@H](O)[C@@H](O[C@H]3O[C@H](CO)[C@@H](O)[C@H](N)[C@H]3O)[C@H](N)C[C@@H]2N)[C@H](N)C[C@@H]1O` [Tobramycin, tobramycin], in data set [1], the “A = therapeutically active (sensitive)” value is on record as 116, the “M = moderately active” value was 86, the “R = inactive (resistant)” value came out at 61 and the “Act. = activity %” value was determined as 79.2%. Also, the “influence” value in data set [2] (in vivo) is “not disadvantageously influenced by the sulfhydryl-containing compounds”. In data set [9], the “substantial improvement of the pathological processes, % of patients” value was “about 60%”. Also, the “substantial improvement, % of patients” value in data set [10] is recorded as not above 40%.
For `CC1(C)S[C@@H]2[C@H](NC(=O)[C@H](N)c3ccc(O)cc3)C(=O)N2[C@H]1C(=O)O` [amoxicillin], the “influence” value in [2] (setting [11]) was “not disadvantageously influenced by the sulfhydryl-containing compounds”.
For the compound `N[C@@H](CSCC(=O)O)C(=O)O` [carbocysteine], the mucolytic effect entry in data set [5] is reported as “mucolytic effect can also be shown”.
On to `O=C(O)C(S)C(S)C(=O)O` (stereo not shown) [dimercaptosuccinate], for which the mucolytic effect entry in data set [5] is “mucolytic effect can also be shown”.
On the same count and under the same terms, to `CCN(CC)C(=S)SSC(=S)N(CC)CC` [disulfiram] belongs “mucolytic effect can also be shown”; to `O[C@H](CS)[C@@H](O)CS` [dithioerythritol], “mucolytic effect can also be shown”.
For the compound `C[C@H]1c2cccc(O)c2C(O)=C2C(=O)[C@]3(O)C(O)=C(C(N)=O)C(=O)[C@@H](N(C)C)[C@@H]3[C@@H](O)[C@@H]21` [doxycyclin], the “influence” value in data set [2] (setting [11]) is “not disadvantageously influenced by the sulfhydryl-containing compounds”.
As for `N[C@@H](CCC(=O)N[C@@H](CS)C(=O)NCC(=O)O)C(=O)O` [glutathione], the mucolytic effect result in data set [5] was “mucolytic effect can also be shown”.
For the compound `CC(C)(CO)[C@@H](O)C(=O)NCCC(=O)NCCS` [pantetheine], the mucolytic effect entry in data set [5] is on record as “mucolytic effect can also be shown”.
As for Gentamycin, in [1], the “A = therapeutically active (sensitive)” value came to 65, the “M = moderately active” value is 72, the “R = inactive (resistant)” value is given as 118 and the “Act. = activity %” value came out at 53.7%.
The corresponding values for Polymyxin B are 69, 8, 103 and 42.7%.
On to neomycin, for which, in data set [1], the “A = therapeutically active (sensitive)” value is 27, the “M = moderately active” value turned out to be 13, the “R = inactive (resistant)” value was found to be 5 and the “Act. = activity %” value came out at 88.9%. Further, in data set [2] (in vivo), the “influence” value is listed as “not disadvantageously influenced by the sulfhydryl-containing compounds”.
